ChEMBL document CHEMBL1146707, “Mechanism-based active site modification of the soybean sterol methyltransferase by 26,27-dehydrocycloartenol” (Bioorg Med Chem Lett, 2004)

Assays:
Glycine max [1] = assay: Catalytic competence for sterol methyl transferase (SMT) assay was determined
[2] = Ratio of kcat to kinact for the compound was determined
Glycine max [3] = assay: Catalytic rate constant was evaluated for the soybean sterol methyl transferase (SMT) action
[4] = Apparent Ki value was calculated; design: species or system Glycine max
Glycine max [5] = assay: Michaelis-Menten constant was evaluated for the soybean sterol methyl transferase (SMT) action
Glycine max [6] = assay: Maximum rate of inactivation for the soybean sterol methyl transferase (SMT) action was determined
Glycine max [7] = assay: Catalytic competence for soybean sterol methyl transferase (SMT) assay was determined
[8] = Compound (50 uM) and 26,27-DHC for 45 min
[9] = Compound (100 uM) and 26,27-DHC for 45 min

Row | SMILES | Activity (Glycine max [1]) | Ratio [2] | k cat (Glycine max [3]) | Ki [4] | Km (Glycine max [5]) | K inact (Glycine max [6]) | Activity (Glycine max [7]) | Activity [8] | Activity [9]
1 | CC(CCC=C1CC1)C1CC[C@@]2(C)C3CCC4C(C)(C)C(O)CCC45CC35CCC12C (some centres not stated) | 3e-05 | 0.06 | 0.0003 s⁻¹ | 42 µM | 10 µM | 0.29 min⁻¹ |  |  | 
2 | CC(C)=CCCC(C)C1CC[C@@]2(C)C3CCC4C(C)(C)C(O)CCC45CC35CCC12C (some centres not stated) |  |  | 0.01 s⁻¹ |  | 30 µM |  | 3e-05 | 48% | 33%
3 | C=C(CCC(C)C1CC[C@@]2(C)C3CCC4C(C)(C)C(O)CCC45CC35CCC12C)C(C)C (some centres not stated) |  |  |  |  |  |  | 3e-05 |  | 
